Common to all, as to type: cell-based
Experiment [1] deals with T1, GIP-R (Homo sapiens, UniProt P48546).
T1 sequence (P48546 22-466): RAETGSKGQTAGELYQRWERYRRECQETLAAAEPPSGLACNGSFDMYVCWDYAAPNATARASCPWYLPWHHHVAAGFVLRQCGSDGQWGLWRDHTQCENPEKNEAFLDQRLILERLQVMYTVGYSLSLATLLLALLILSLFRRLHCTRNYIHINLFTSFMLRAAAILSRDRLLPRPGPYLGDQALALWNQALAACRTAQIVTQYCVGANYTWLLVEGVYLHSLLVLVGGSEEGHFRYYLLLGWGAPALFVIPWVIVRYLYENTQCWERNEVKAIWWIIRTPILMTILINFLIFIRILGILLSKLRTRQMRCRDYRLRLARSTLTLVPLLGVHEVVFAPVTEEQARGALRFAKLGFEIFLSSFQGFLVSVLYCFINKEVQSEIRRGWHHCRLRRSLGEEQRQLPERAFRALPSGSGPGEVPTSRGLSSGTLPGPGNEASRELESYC
Briefly: HitHunter cAMP assay (GIP-R). The following applies: cAMP; for Emax: read-out: (Emax) GIP-R. The method in brief: (§1)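 Suspension cells (10,000/well) in HBSS with 10 mM HEPES, 625 μM IBMX, 0.2% BSA exposed to 22-point 2-fold agonist series in duplicate for 30 min at room temperature. cAMP measured by antibody immunocompetition with overnight development, luminescence read-out.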

For experiment [2], the target named is T2, GLP-1R (Homo sapiens, UniProt P43220). Briefly: HitHunter cAMP assay (GLP-1R). The following applies: cAMP; for Emax: read-out: (Emax) GLP-1R. The method in brief:
as §1

In experiment [3] the target is T2, GLP-1R. Description: PathHunter β-arrestin assay. The essentials:
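Cells (5,000/well) plated overnight, then exposed to a 22-point 2-fold agonist dilution series in medium with 0.2% BSA for 90 min at 37 °C, 5% CO2. PathHunter detection reagent added; after 3 h at room temperature in the dark, luminescence read.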

The mark [4] stands for this setting: Table 3A, read-out: EC50 GIP-R/nM.
Setting [5] is: Table 3A, read-out: EC50 GLP-1R/nM.
Where [6] appears, read: PathHunter β-arrestin assay, read-out: β-arrestin activity EC50.

SMILES strings stand for the structures. Like-named read-outs stand apart in the source and are kept apart here.

T2 sequence (P43220 24-463): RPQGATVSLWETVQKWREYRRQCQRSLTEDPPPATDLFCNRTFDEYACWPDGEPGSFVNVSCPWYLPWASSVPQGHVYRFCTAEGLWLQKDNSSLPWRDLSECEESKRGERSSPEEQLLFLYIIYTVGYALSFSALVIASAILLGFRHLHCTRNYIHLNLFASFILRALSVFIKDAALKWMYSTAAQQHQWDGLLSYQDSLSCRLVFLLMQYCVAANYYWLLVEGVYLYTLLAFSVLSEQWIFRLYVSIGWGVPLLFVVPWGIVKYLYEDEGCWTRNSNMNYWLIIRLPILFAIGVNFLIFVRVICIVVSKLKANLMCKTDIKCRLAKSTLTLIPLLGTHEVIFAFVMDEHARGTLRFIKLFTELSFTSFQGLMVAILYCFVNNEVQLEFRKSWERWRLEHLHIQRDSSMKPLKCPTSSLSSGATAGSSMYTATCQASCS

As to `CCCCCCCCCCCCCCCC(=O)N[C@@H](CCC(=O)NCCCC[C@H](NC(=O)[C@H](CO)NC(=O)[C@@H]1CCCN1C(=O)[C@@H]1CCCN1C(=O)[C@@H]1CCCN1C(=O)[C@H](C)NC(=O)CNC(=O)[C@H](CO)NC(=O)[C@H](CO)NC(=O)[C@@H]1CCCN1C(=O)CNC(=O)CNC(=O)[C@H](C)NC(=O)[C@H](CC(C)C)NC(=O)[C@H](CC(C)C)NC(=O)[C@H](Cc1c[nH]c2ccccc12)NC(=O)[C@H](CC(N)=O)NC(=O)[C@@H](NC(=O)[C@H](Cc1ccccc1)NC(=O)[C@H](CCC(=O)O)NC(=O)C(C)(C)NC(=O)[C@H](C)NC(=O)[C@H](C)NC(=O)[C@H](CCC(N)=O)NC(=O)[C@H](CCCCN)NC(=O)[C@H](CC(=O)O)NC(=O)[C@H](CC(C)C)NC(=O)[C@H](Cc1ccc(O)cc1)NC(=O)[C@@H](NC(=O)[C@H](CO)NC(=O)[C@H](Cc1ccc(O)cc1)NC(=O)[C@H](CC(=O)O)NC(=O)[C@H](CO)NC(=O)[C@@H](NC(=O)[C@H](Cc1ccccc1)NC(=O)[C@@H](NC(=O)CNC(=O)[C@H](CCC(=O)O)NC(=O)CSCC(=O)NCCN1CCNC(=O)C1=O)[C@@H](C)O)[C@@H](C)O)[C@@H](C)CC)C(C)C)C(N)=O)C(=O)O` [Compound 24], the EC50 in experiment [1] (EC50 GIP-R/nM, Table 3) was 1 to 10 nM; in experiment [1] (EC50 GIP-R/nM, Table 3A), 100 to 1000 nM; in experiment [2] (EC50 GLP-1R/nM, Table 3) it was 0.1 to 1 nM; in experiment [2] (EC50 GLP-1R/nM, Table 3A), 0.1 to 1 nM; in experiment [3] it was more than 1 µM. Also, the Emax turned out to be 15% in experiment [1] (Table 3), 15% in experiment [1] (Table 3A), 92% in experiment [2] (Table 3) and 92% in experiment [2] (Table 3A).

In the case of `CC[C@H](C)[C@H](NC(=O)[C@H](CO)NC(=O)[C@H](Cc1ccc(O)cc1)NC(=O)[C@H](CC(=O)O)NC(=O)[C@H](CO)NC(=O)[C@@H](NC(=O)[C@H](Cc1ccccc1)NC(=O)[C@@H](NC(=O)CNC(=O)[C@H](CCC(=O)O)NC(=O)CSCC(=O)NCCN1C(=O)[C@H]2CCCC[C@H]2C1=O)[C@@H](C)O)[C@@H](C)O)C(=O)N[C@@H](Cc1ccc(O)cc1)C(=O)N[C@@H](CC(C)C)C(=O)N[C@@H](CC(=O)O)C(=O)N[C@@H](CCCCN)C(=O)N[C@@H](CCC(N)=O)C(=O)N[C@@H](C)C(=O)N[C@@H](C)C(=O)NC(C)(C)C(=O)N[C@@H](CCC(=O)O)C(=O)N[C@@H](Cc1ccccc1)C(=O)N[C@H](C(=O)N[C@@H](CC(N)=O)C(=O)N[C@@H](Cc1c[nH]c2ccccc12)C(=O)N[C@@H](CC(C)C)C(=O)N[C@@H](CC(C)C)C(=O)N[C@@H](C)C(=O)NCC(=O)NCC(=O)N1CCC[C@H]1C(=O)N[C@@H](CO)C(=O)N[C@@H](CO)C(=O)NCC(=O)N[C@@H](C)C(=O)N1CCC[C@H]1C(=O)N1CCC[C@H]1C(=O)N1CCC[C@H]1C(=O)N[C@@H](CO)C(=O)N[C@@H](CCCCN)C(N)=O)C(C)C` [Compound 159], the EC50 in experiment [1] (EC50 GIP-R/nM, Table 3) is 1 to 10 nM; in experiment [1] (EC50 GIP-R/nM, Table 3A), 1 to 10 nM; in experiment [2] (EC50 GLP-1R/nM, Table 3) it was 10 to 100 nM; in experiment [2] (EC50 GLP-1R/nM, Table 3A), 10 to 100 nM; in experiment [3], more than 1 µM. For the same compound, the Emax in experiment [1] (Table 3) was 89 to 92%; in experiment [1] (Table 3A), 89 to 92%; in experiment [2] (Table 3), 87 to 91%; in experiment [2] (Table 3A), 87 to 91%.

Turning to `CCCCCCCCCCCCCCCC(=O)N[C@@H](CCC(=O)NCCCC[C@H](NC(=O)[C@H](CO)NC(=O)[C@@H]1CCCN1C(=O)[C@@H]1CCCN1C(=O)[C@@H]1CCCN1C(=O)[C@H](C)NC(=O)CNC(=O)[C@H](CO)NC(=O)[C@H](CO)NC(=O)[C@@H]1CCCN1C(=O)CNC(=O)CNC(=O)[C@H](C)NC(=O)[C@H](CC(C)C)NC(=O)[C@H](CC(C)C)NC(=O)[C@H](Cc1c[nH]c2ccccc12)NC(=O)[C@H](CC(N)=O)NC(=O)[C@@H](NC(=O)[C@H](Cc1ccccc1)NC(=O)[C@H](CCC(=O)O)NC(=O)C(C)(C)NC(=O)[C@H](C)NC(=O)[C@H](C)NC(=O)[C@H](CCC(N)=O)NC(=O)[C@H](CCCCN)NC(=O)[C@H](CC(=O)O)NC(=O)[C@H](CC(C)C)NC(=O)[C@](C)(Cc1ccc(O)cc1)NC(=O)[C@@H](NC(=O)[C@H](CO)NC(=O)[C@H](Cc1ccc(O)cc1)NC(=O)[C@H](CC(=O)O)NC(=O)[C@H](CO)NC(=O)[C@@H](NC(=O)[C@H](Cc1ccccc1)NC(=O)[C@@H](NC(=O)CNC(=O)[C@H](CCC(=O)O)NC(=O)CSCC(=O)NCCN1CCCCC1=O)[C@@H](C)O)[C@@H](C)O)[C@@H](C)CC)C(C)C)C(N)=O)C(=O)O` [Compound 225], in experiment [1] (Table 3A), the Emax fell in the range of 70 to 80%. In addition, the EC50 in experiment [1] (setting [4]) was 1 to 10 nM; in experiment [2] (setting [5]) it was 0.1 to 1 nM; in experiment [3] (setting [6]) it was more than 1 µM.

`CCCCCCCCCCCCCCCC(=O)N[C@@H](CCC(=O)NCCCC[C@H](NC(=O)[C@H](CO)NC(=O)[C@@H]1CCCN1C(=O)[C@@H]1CCCN1C(=O)[C@@H]1CCCN1C(=O)[C@H](C)NC(=O)CNC(=O)[C@H](CO)NC(=O)[C@H](CO)NC(=O)[C@@H]1CCCN1C(=O)CNC(=O)CNC(=O)[C@H](C)NC(=O)[C@H](CC(C)C)NC(=O)[C@H](CC(C)C)NC(=O)[C@H](Cc1c[nH]c2ccccc12)NC(=O)[C@H](CC(N)=O)NC(=O)[C@@H](NC(=O)[C@H](Cc1ccccc1)NC(=O)[C@H](CCC(=O)O)NC(=O)C(C)(C)NC(=O)[C@H](C)NC(=O)[C@H](C)NC(=O)[C@H](CCC(N)=O)NC(=O)[C@H](CCCCN)NC(=O)[C@H](CC(=O)O)NC(=O)[C@H](CC(C)C)NC(=O)[C@H](Cc1ccc(O)cc1)NC(=O)[C@@H](NC(=O)[C@H](CO)NC(=O)[C@H](Cc1ccc(O)cc1)NC(=O)[C@H](CC(=O)O)NC(=O)[C@H](CO)NC(=O)[C@@H](NC(=O)[C@H](Cc1ccccc1)NC(=O)[C@@H](NC(=O)CNC(=O)[C@H](CCC(=O)O)NC(=O)[C@@H](C)NC(=O)CCN1CCCCC1=O)[C@@H](C)O)[C@@H](C)O)[C@@H](C)CC)C(C)C)C(N)=O)C(=O)O` [Compound 214]: the maximal response (Emax) in experiment [1] (Table 3A) was 45%; in experiment [2] (Table 3A) it was 95%. Also, the EC50 in experiment [1] (setting [4]) is 1 to 10 nM; in experiment [2] (setting [5]), less than 0.1 nM; in experiment [3] (setting [6]), 0.01 to 1 µM.

As for `CCCCCCCCCCCCCCCC(=O)N[C@@H](CCC(=O)NCCCC[C@H](NC(=O)[C@H](CO)NC(=O)[C@@H]1CCCN1C(=O)[C@@H]1CCCN1C(=O)[C@@H]1CCCN1C(=O)[C@H](C)NC(=O)CNC(=O)[C@H](CO)NC(=O)[C@H](CO)NC(=O)[C@@H]1CCCN1C(=O)CNC(=O)CNC(=O)[C@H](C)NC(=O)[C@H](CC(C)C)NC(=O)[C@H](CC(C)C)NC(=O)[C@H](Cc1c[nH]c2ccccc12)NC(=O)[C@H](CC(N)=O)NC(=O)[C@@H](NC(=O)[C@H](Cc1ccccc1)NC(=O)[C@H](CCC(=O)O)NC(=O)C(C)(C)NC(=O)[C@H](C)NC(=O)[C@H](C)NC(=O)[C@H](CCC(N)=O)NC(=O)[C@H](CCCCN)NC(=O)[C@H](CC(=O)O)NC(=O)[C@H](CC(C)C)NC(=O)[C@H](Cc1ccc(O)cc1)NC(=O)[C@@H](NC(=O)[C@H](CO)NC(=O)[C@H](Cc1ccc(O)cc1)NC(=O)[C@H](CC(=O)O)NC(=O)[C@H](CO)NC(=O)[C@@H](NC(=O)[C@H](Cc1ccccc1)NC(=O)[C@@H](NC(=O)CNC(=O)[C@H](CCC(=O)O)NC(=O)C(C)(C)NC(=O)CN1CCCCC1=O)[C@@H](C)O)[C@@H](C)O)[C@@H](C)CC)C(C)C)C(N)=O)C(=O)O` [Compound 209], the maximal effect (Emax) came to 27% in experiment [1] (Table 3A) and 94% in experiment [2] (Table 3A). Besides, the EC50 in experiment [1] (setting [4]) is 10 to 100 nM; in experiment [2] (setting [5]) it was less than 0.1 nM; in experiment [3] (setting [6]), 0.01 to 1 µM.

`CC[C@H](C)[C@H](NC(=O)[C@H](CO)NC(=O)[C@H](Cc1ccc(O)cc1)NC(=O)[C@H](CC(=O)O)NC(=O)[C@H](CO)NC(=O)[C@@H](NC(=O)[C@H](Cc1ccccc1)NC(=O)[C@@H](NC(=O)CNC(=O)[C@H](CCC(=O)O)NC(=O)CSCC(=O)NCCn1c(C)cc(C)cc1=O)[C@@H](C)O)[C@@H](C)O)C(=O)N[C@@H](Cc1ccc(O)cc1)C(=O)N[C@@H](CC(C)C)C(=O)N[C@@H](CC(=O)O)C(=O)N[C@@H](CCCCN)C(=O)N[C@@H](CCC(N)=O)C(=O)N[C@@H](C)C(=O)N[C@@H](C)C(=O)NC(C)(C)C(=O)N[C@@H](CCC(=O)O)C(=O)N[C@@H](Cc1ccccc1)C(=O)N[C@H](C(=O)N[C@@H](CC(N)=O)C(=O)N[C@@H](Cc1c[nH]c2ccccc12)C(=O)N[C@@H](CC(C)C)C(=O)N[C@@H](CC(C)C)C(=O)N[C@@H](C)C(=O)NCC(=O)NCC(=O)N1CCC[C@H]1C(=O)N[C@@H](CO)C(=O)N[C@@H](CO)C(=O)NCC(=O)N[C@@H](C)C(=O)N1CCC[C@H]1C(=O)N1CCC[C@H]1C(=O)N1CCC[C@H]1C(=O)N[C@@H](CO)C(=O)N[C@@H](CCCCN)C(N)=O)C(C)C` [Compound 111]: the EC50 in experiment [1] (EC50 GIP-R/nM, Table 3) was 10 to 100 nM; in experiment [1] (EC50 GIP-R/nM, Table 3A), 100 to 1000 nM; in experiment [2] (EC50 GLP-1R/nM, Table 3), 10 to 100 nM; in experiment [2] (EC50 GLP-1R/nM, Table 3A), 10 to 100 nM; in experiment [3], more than 1 µM. The Emax at 1 µM came out at 12% in experiment [1] (read-out: (Emax) GIP-R at 1 μM, Table 3) and 12% in experiment [1] (read-out: (Emax) GIP-R at 1 μM, Table 3A). The Emax in experiment [2] (Table 3) and in experiment [2] (Table 3A) was 94% throughout.
